Laboratory results: ChEMBL document CHEMBL1201862, “PubChem BioAssay data set” (2004)
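Compound exposure: 48 hours, 5 concentrations, 96-well plates. Abbreviation: GI50, concentration required for 50% inhibition of growth.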 Active and inactive are the calls of the source. No stated cut-off is given here; in the data, active = GI50 up to about 1.1 µM and inactive = higher.

Key:
Assay in all cases: NCI anticancer screen, dose series, 48 h
786-0 = system: 786-0
SNB-19 = system: SNB-19
NCI-H23 = system: NCI-H23
SK-MEL-5 = system: SK-MEL-5
CAKI-1 = system: CAKI-1
RPMI-8226 = system: RPMI-8226
SF-539 = system: SF-539
SF-295 = system: SF-295
KM12 = system: KM12
M14 = system: M14
OVCAR-4 = system: OVCAR-4
HCT-116 = system: HCT-116
COLO 205 = system: COLO 205
A549 = system: A549
OVCAR-3 = system: OVCAR-3
UO-31 = system: UO-31
ACHN = system: ACHN
UACC-62 = system: UACC-62
SF-268 = system: SF-268
HL-60 = system: HL-60

Measured: GI50

CC(C)(C)c1cc(C(OCCl)(C(F)(F)F)C(F)(F)F)c2c(c1)C(C(F)(F)F)(C(F)(F)F)OC21c2ccccc2C(=O)c2ccccc21
inactive: 786-0 > 100 µM | SNB-19 > 100 µM | NCI-H23 > 100 µM | SK-MEL-5 > 100 µM | CAKI-1 > 100 µM | RPMI-8226 > 100 µM | SF-539 > 100 µM | SF-295 > 100 µM | KM12 > 100 µM | M14 > 100 µM | OVCAR-4 > 100 µM | HCT-116 > 100 µM | COLO 205 > 100 µM | A549 > 100 µM | OVCAR-3 > 100 µM | UO-31 > 100 µM | ACHN > 100 µM

C#CCNC(=O)ON1C(=O)CCC1=O
inactive: 786-0 > 100 µM | SNB-19 > 100 µM | NCI-H23 > 100 µM | UACC-62 > 100 µM | SF-268 > 100 µM | HL-60 > 100 µM | RPMI-8226 > 100 µM | SF-539 > 100 µM | SF-295 > 100 µM | KM12 > 100 µM | OVCAR-4 > 100 µM | HCT-116 > 100 µM | COLO 205 > 100 µM | A549 > 100 µM | OVCAR-3 > 100 µM | UO-31 > 100 µM | ACHN > 100 µM

CC1(CCC2C=CCC2)CCCNC1=S (configuration not stated)
inactive: 786-0 > 10 µM | SNB-19 > 10 µM | NCI-H23 > 10 µM | UACC-62 > 10 µM | SK-MEL-5 > 10 µM | SF-268 > 10 µM | HL-60 > 10 µM | RPMI-8226 > 10 µM | SF-539 > 10 µM | SF-295 > 10 µM | KM12 > 10 µM | M14 > 10 µM | HCT-116 > 10 µM | A549 > 10 µM | OVCAR-3 > 10 µM | UO-31 > 10 µM | ACHN > 10 µM

Cc1cn(CC2=NCC(C)(C)N2)c(=O)[nH]c1=O
inactive: 786-0 > 100 µM | SNB-19 > 100 µM | NCI-H23 > 100 µM | UACC-62 > 100 µM | SK-MEL-5 > 100 µM | SF-268 > 100 µM | RPMI-8226 > 100 µM | SF-295 > 100 µM | M14 > 100 µM | HCT-116 > 100 µM | COLO 205 > 100 µM | A549 > 100 µM | UO-31 > 100 µM | ACHN > 100 µM

Cc1cc(C)nc(NS(=O)(=O)c2ccc(Nc3c4ccc(Cl)cc4nc4c(C(=O)Nc5ccc(S(=O)(=O)N=C(N)N)cc5)cccc34)cc2)n1
inactive: 786-0 > 100 µM | SNB-19 > 100 µM | NCI-H23 > 100 µM | UACC-62 70.8 µM | SF-268 35.7 µM | RPMI-8226 45.4 µM | SF-539 > 100 µM | SF-295 > 100 µM | KM12 > 100 µM | M14 > 100 µM | OVCAR-4 > 100 µM | HCT-116 54.3 µM | OVCAR-3 96.6 µM | UO-31 > 100 µM | ACHN 96.6 µM

CNC(=O)c1nnn(Cc2ccccc2)c1S
inactive: 786-0 > 100 µM | SNB-19 > 100 µM | NCI-H23 > 100 µM | UACC-62 > 100 µM | SK-MEL-5 > 100 µM | CAKI-1 > 100 µM | RPMI-8226 > 100 µM | SF-295 > 100 µM | KM12 > 100 µM | M14 > 100 µM | OVCAR-4 > 100 µM | HCT-116 > 100 µM | COLO 205 > 100 µM | A549 > 100 µM | OVCAR-3 > 100 µM | UO-31 > 100 µM | ACHN > 100 µM

CCc1nnc(CC)n1-n1c(Cc2ccccc2)n[nH]c1=O
inactive: 786-0 > 100 µM | SNB-19 > 100 µM | NCI-H23 > 100 µM | UACC-62 > 100 µM | SK-MEL-5 > 100 µM | SF-268 > 100 µM | RPMI-8226 > 100 µM | SF-539 > 100 µM | SF-295 > 100 µM | KM12 > 100 µM | M14 > 100 µM | OVCAR-4 > 100 µM | HCT-116 > 100 µM | COLO 205 > 100 µM | A549 > 100 µM | OVCAR-3 > 100 µM | UO-31 > 100 µM | ACHN > 100 µM

COC(=O)C1(O)C(c2ccccc2)=NC2(C)CCCC21 (configuration not stated)
inactive: 786-0 > 100 µM | SNB-19 > 100 µM | NCI-H23 > 100 µM | UACC-62 > 100 µM | SK-MEL-5 > 100 µM | SF-268 > 100 µM | CAKI-1 > 100 µM | RPMI-8226 > 100 µM | SF-295 > 100 µM | KM12 > 100 µM | M14 > 100 µM | OVCAR-4 > 100 µM | HCT-116 > 100 µM | COLO 205 > 100 µM | A549 > 100 µM | OVCAR-3 > 100 µM | UO-31 > 100 µM
